Reference: ChEMBL document CHEMBL4014354, “2'-Chloro,2'-fluoro Ribonucleotide Prodrugs with Potent Pan-genotypic Activity against Hepatitis C Virus Replication in Culture” (J Med Chem, 2017)

Key:
in vitro [1] = conditions: human, liver microsomes
Description: Clearance in human liver microsomes at 1 uM by LC-MS/MS analysis

in vitro [2] = conditions: human, liver microsomes; remark: listed apart in the source
Description: Metabolic stability in human liver microsomes assessed as parent compound remaining at 1 uM at 60 mins by LC-MS/MS analysis

in vitro [3] = conditions: human, liver microsomes; remark: listed apart in the source
Description: Half life in human liver microsomes at 1 uM by LC-MS/MS analysis

Hepatitis C virus [4] = assay: Antiviral activity against HCV genotype 3a infected in human HuH7 cells assessed as inhibition of viral RNA replication after 96 hrs by RT-PCR method; type: functional, cell-based, Hepacivirus hominis; conditions: Huh-7, 96 h
Hepatitis C virus [5] = assay: Antiviral activity against HCV genotype 1a infected in human HuH7 cells assessed as inhibition of viral RNA replication after 96 hrs by RT-PCR method; type: functional, cell-based, Hepacivirus hominis; conditions: subtype 1a, Huh-7, 96 h
Hepatitis C virus [6] = assay: Antiviral activity against HCV genotype 4 infected in human HuH7 cells assessed as inhibition of viral RNA replication after 96 hrs by RT-PCR method; type: functional, cell-based, Hepacivirus hominis; conditions: genotype 4, Huh-7, 96 h
Hepatitis C virus [7] = assay: Antiviral activity against HCV genotype 1b infected in human HuH7 cells assessed as inhibition of viral RNA replication after 96 hrs by RT-PCR method; type: functional, cell-based, Hepacivirus hominis; conditions: Huh-7, 96 h
Hepatitis C virus [8] = assay: Antiviral activity against HCV genotype 2a/k infected in human HuH7 cells assessed as inhibition of viral RNA replication after 96 hrs by RT-PCR method; type: functional, cell-based, Hepacivirus hominis; conditions: Huh-7, 96 h
Hepatitis C virus [9] = assay: Antiviral activity against HCV genotype 2b infected in human HuH7 cells assessed as inhibition of viral RNA replication after 96 hrs by RT-PCR method; type: functional, cell-based, Hepacivirus hominis; conditions: Huh-7, 96 h
Hepatitis C virus [10] = assay: Antiviral activity against HCV genotype 1b harboring wild type NS5B infected in human HuH7 cells assessed as inhibition of viral RNA replication after 5 days by RT-PCR method; type: functional, cell-based, Hepacivirus hominis; conditions: Huh-7, 120 h
[11] = Cytotoxicity against human HuH7 cells assessed as inhibition of cell proliferation after 4 days by MTS assay; type: cell-based, Huh-7
[12] = Cytotoxicity against African green monkey Vero cells assessed as inhibition of cell proliferation after 3 days by MTT assay; type: cell-based; conditions: chlorocebus sabaeus
[13] = Cytotoxicity against human PBMC assessed as inhibition of cell proliferation after 5 days by MTT assay; type: cell-based
[14] = Cytotoxicity against human CEM cells assessed as inhibition of cell proliferation after 4 days by MTT assay; type: cell-based, CCRF-CEM
HepG2 [15] = assay: Mitochondrial toxicity in human HepG2 cells assessed as cytochrome c oxidase subunit 2 DNA levels at 10 uM measured on day 14 by RT-PCR method relative to nuclear beta-actin DNA levels; conditions: hepg2, 10 µM
HepG2 [16] = assay: Mitochondrial toxicity in human HepG2 cells assessed as lactic acid production at 10 uM measured on day 14 by spectrophotometric method relative to control; type: cell-based; conditions: hepg2, 10 µM
[17] = test system: cytochrome c oxidase subunit 2 DNA (mitochondrial DNA) levels; assay: Mitochondrial toxicity in human HepG2 cells assessed as inhibition of cytochrome c oxidase subunit 2 DNA levels measured on day 14 by RT-PCR method; type: cell-based
[18] = test system: cytochrome c oxidase subunit 2 DNA (mitochondrial DNA) levels; assay: in vitro; conditions: human, HepG2 cells
HepG2 [19] = assay: Cytotoxicity against human HepG2 cells assessed as inhibition of nuclear DNA levels measured on day 14 by RT-PCR method; conditions: HepG2, 336 h
nuclear DNA levels [20] = assay: in vitro; conditions: human, HepG2 cells
[21] = Inhibition of RNA polymerase 2 isolated from human HeLa cell nuclear extract assessed as decrease in incorporation of P32-alpha-CTP after 2 hrs by scintillation counting method; type: cell-free
[22] = test system: cytochrome c oxidase subunit 2 DNA (mitochondrial DNA) levels; assay: Mitochondrial toxicity in human HepG2 cells assessed as inhibition of cytochrome c oxidase subunit 2 DNA levels at 50 uM measured on day 14 by RT-PCR method relative to nuclear beta-actin DNA levels; type: cell-based
HepG2 [23] = assay: Mitochondrial toxicity in human HepG2 cells assessed as lactic acid production at 50 uM measured on day 14 by spectrophotometric method relative to control; type: cell-based; conditions: hepg2, 50 µM
nuclear DNA levels [24] = assay: Cytotoxicity against human HepG2 cells assessed as inhibition of nuclear DNA levels at 50 uM measured on day 14 by RT-PCR method relative to nuclear beta-actin DNA levels; type: cell-based; conditions: read-out: INH
HepG2 [25] = assay: Mitochondrial toxicity in human HepG2 cells assessed as cytochrome c oxidase subunit 2 DNA levels at 50 uM measured on day 14 by RT-PCR method relative to nuclear beta-actin DNA levels; type: cell-based; conditions: hepg2, 50 µM
DNA polymerase beta = DNA polymerase beta (Homo sapiens, UniProt P06746); assay: Inhibition of human DNA polymerase beta using 5' end radiolabeled 24nt DNA/48nt DNA as primer/template after 5 mins by PAGE analysis
[26] = Inhibition of human DNA polymerase gamma using 5' end radiolabeled 24nt DNA/36nt DNA as primer/template after 120 mins by PAGE analysis

Structure (SMILES)	EC50 (Hepatitis C virus [10]) [µM]	EC90 (Hepatitis C virus [10]) [µM]	CC50 at 96 h [11] [µM]	CC50 at 72 h [12] [µM]	CC50 at 120 h [13] [µM]	CC50 at 96 h [14] [µM]	further results
C[C@]12CC[C@H]3[C@@H](CCC4=CC(=O)CC[C@@]43C)[C@@H]1CC[C@@H]2O [TESTOSTERONE]	–	–	–	–	–	–	microsomal CLint at 1 µM (in vitro [1]): 92 µL/min/mg; remaining at 1 h, 1 µM (in vitro [2]): 6.3%; half-life at 1 µM (in vitro [3]): 15 min
C[C@@]1(F)[C@H](O)[C@@H](CO)O[C@H]1n1ccc(=O)[nH]c1=O	–	–	–	–	–	–	IC50 (Hepatitis C virus [4]): > 100 µM; IC50 (Hepatitis C virus [5]): > 100 µM; IC50 (Hepatitis C virus [6]): > 100 µM; IC50 (Hepatitis C virus [7]): > 100 µM; IC50 (Hepatitis C virus [8]): > 100 µM; IC50 (Hepatitis C virus [9]): > 100 µM
CC(C)OC(=O)[C@H](C)NP(=O)(OC[C@H]1O[C@@H](n2cnc3c(N)ncnc32)C(F)(Cl)C1O)Oc1ccccc1 (single isomer, unassigned)	0.6	2.1	> 33	53.9	84.8	36.3	–
CC(C)OC(=O)[C@H](C)NP(=O)(OC[C@H]1O[C@@H](n2cc(I)c3c(N)ncnc32)C(F)(Cl)C1O)Oc1ccccc1 (single isomer, unassigned)	> 10	> 10	> 10	> 100	> 100	69.3	–
Nc1ccn([C@H]2CC[C@@H](CO)O2)c(=O)n1 [ZALCITABINE]	–	–	–	–	–	–	Activity (HepG2 [15]): 9.5%; Activity (HepG2 [16]): 330%; IC50 at 14 days [17]: < 10 µM; inhibition at 14 days, 10 µM [18]: 96%; IC50 (HepG2 [19]): < 10 µM; cytotoxicity at 14 days, 10 µM (nuclear DNA levels [20]): 53%
O=C(O)Cc1ccccc1Nc1c(Cl)cccc1Cl [DICLOFENAC]	–	–	–	–	–	–	microsomal CLint at 1 µM (in vitro [1]): 156 µL/min/mg; remaining at 1 h, 1 µM (in vitro [2]): 1.2%; half-life at 1 µM (in vitro [3]): 8.9 min
Nc1ncnc2c1c(F)cn2[C@@H]1O[C@H](CO)C(O)C1(F)Cl (single isomer, unassigned)	> 10	> 10	> 10	42.4	82.6	19.9	–
CC[C@H](C)[C@@H]1NC(=O)CNC(=O)[C@@H]2Cc3c([nH]c4cc(O)ccc34)[S+]([O-])C[C@@H](NC(=O)CNC1=O)C(=O)N[C@@H](CC(N)=O)C(=O)N1C[C@H](O)C[C@H]1C(=O)N[C@@H]([C@@H](C)[C@@H](O)CO)C(=O)N2 (stereo partly drawn) [alpha-Amanitin]	–	–	–	–	–	–	IC50 [21]: 0.0025 µM
CC(C)OC(=O)[C@H](C)NP(=O)(OC[C@H]1O[C@@H](n2cnc3c(=O)[nH]c(N)nc32)[C@@](F)(Cl)[C@@H]1O)Oc1ccccc1 (some centres undefined)	0.3	0.8	> 10	> 100	> 100	> 100	–
O=c1ccn([C@@H]2O[C@H](CO)[C@@H](O)[C@]2(F)Cl)c(=O)[nH]1	> 100	> 100	> 100	> 100	> 100	> 100	Activity (HepG2 [15]): 160%; Activity (HepG2 [16]): 85%; IC50 (Hepatitis C virus [4]): > 60 µM; IC50 at 14 days [17]: > 50 µM; IC50 (Hepatitis C virus [5]): > 60 µM; inhibition at 14 days, 50 µM [22]: < 1%; IC50 (Hepatitis C virus [6]): > 60 µM; Activity (HepG2 [23]): 120%; cytotoxicity at 14 days, 50 µM (nuclear DNA levels [24]): < 1%; inhibition at 14 days, 10 µM [18]: < 1%; IC50 (Hepatitis C virus [7]): > 60 µM; IC50 (Hepatitis C virus [8]): > 60 µM; IC50 (Hepatitis C virus [9]): > 60 µM; Activity (HepG2 [25]): 120%; IC50 (HepG2 [19]): > 50 µM; cytotoxicity at 14 days, 10 µM (nuclear DNA levels [20]): 8.8%
CC(C)OC(=O)[C@H](C)NP(=O)(OC[C@H]1O[C@@H](n2ccc3c(N)ncnc32)C(F)(Cl)C1O)Oc1ccccc1 (single isomer, unassigned)	> 10	> 10	> 10	> 100	> 100	69	–
Cc1cn([C@H]2CC[C@@H](COP(=O)(O)OP(=O)(O)OP(=O)(O)O)O2)c(=O)[nH]c1=O	–	–	–	–	–	–	IC50 (DNA polymerase beta): 19 µM; IC50 [26]: 43 µM
C[C@@]1(O)[C@H](O)[C@@H](CO)O[C@H]1n1ccc(N)nc1=O	1.7	6.5	> 10	> 100	> 100	> 100	–
CC(C)OC(=O)[C@H](C)NP(=O)(OC[C@H]1O[C@@H](n2cc(F)c3c(N)ncnc32)C(F)(Cl)C1O)Oc1ccccc1 (single isomer, unassigned)	> 10	> 10	> 10	60.9	99.7	55.3	–
Nc1ccn([C@@H]2CS[C@H](CO)O2)c(=O)n1 [LAMIVUDINE]	–	–	–	–	–	–	IC50 at 14 days [17]: > 10 µM
Nc1nc2c(ncn2[C@@H]2O[C@H](CO)[C@@H](O)[C@]2(F)Cl)c(=O)[nH]1	19	33	> 33	> 100	> 100	> 100	–
Nc1ncnc2c1c(I)cn2[C@@H]1O[C@H](CO)C(O)C1(F)Cl (single isomer, unassigned)	> 10	> 10	> 10	11.5	6.6	7.3	–
Nc1ncnc2c1ccn2[C@@H]1O[C@H](CO)C(O)C1(F)Cl (single isomer, unassigned)	> 10	> 10	> 10	–	–	–	–
CC(C)OC(=O)[C@H](C)NP(=O)(OC[C@H]1O[C@@H](n2ccc(N)nc2=O)[C@@](F)(Cl)[C@@H]1O)Oc1ccccc1 (some centres undefined)	0.1	0.3	> 10	> 100	> 100	> 100	–
Nc1ccn([C@@H]2O[C@H](CO)[C@@H](O)[C@]2(F)Cl)c(=O)n1	0.3	0.9	> 10	8.4	12	> 100	–
Nc1ncnc2c1ncn2[C@@H]1O[C@H](CO)C(O)C1(F)Cl (single isomer, unassigned)	> 10	> 10	> 10	> 100	> 100	> 100	–
